Patent publication US20160270410A1, “INSECTICIDAL COMPOSITIONS AND METHODS OF USING THE SAME” (Clarke Mosquito Control Products, Inc., priority 2011, published 2016)

Test system: 3rd instar Aedes aegypti
Test: Laboratory bioassay in larval trays, larvicide surface film, Aedes aegypti
Type: in vivo
Conditions: components of Sample 42 tested neat, rate 663 μL, 21° C.
Experimental: Laboratory Bioassay Method. All larvae were reared on a diet of ground TETRAMIN® fish food (Tetra, Blacksburg, Va.) in an insectary maintained at 30° C. and 45% relative humidity (RH). Mainly third instars of Aedes aegypti were used for the laboratory container experiments. Anopheles quadrimaculatus and Culex quinquefasciatus were also tested where indicated.
Laboratory bioassays were conducted in […] plastic larval trays (laboratory containers). Each tray was filled with 27 liters of de-chlorinated water and received 50 healthy third instar larvae. The temperature of the water during most of the studies was 21° C. Additional testing was done at a water temperature of 15.6° C. and 28° C. Treatments were applied at a rate of 3 gal/acre or 663 μL/tray with an Eppendorf pipette. During the experimental period larvae were fed ground TETRAMIN® fish food (Tetra, Blacksburg, Va.) that was blended with water before introduction into the water of the larval tray to prevent flotation and thus interference with the surface film being tested.
Trays were scored for mortality at 1, 2, 4, 24, 48, and 72 hours following treatment introduction. At each time period the numbers of live and dead larvae were counted. […] Each treatment in the study was replicated three times using separate trays for each replication. A 95% mortality rate was considered acceptable for a commercial product.

ethoxylated tridecyl alcohol
% MORTALITY 24 HAT (24 HAT): 17% | % MORTALITY 48 HAT (48 HAT): 20% | % MORTALITY 72 HAT (72 HAT): 25%
